Here are results for three compounds from article PMC4666645 (PLoS Pathogens, 2015).

For orientation: EC50 means the concentration at which the effect is half-maximal.

In one test the test system is native C. elegans L-AChR. The following applies: cited from earlier work.
For test [1], the target named is T1, Hco-L-AChR-2 (Hco-UNC-38, Hco-UNC-63, Hco-UNC-29.1) (Haemonchus contortus, UniProt D6MYE9+D6MYF3+D6MYF4).
T1 sequence (D6MYF3 20-512): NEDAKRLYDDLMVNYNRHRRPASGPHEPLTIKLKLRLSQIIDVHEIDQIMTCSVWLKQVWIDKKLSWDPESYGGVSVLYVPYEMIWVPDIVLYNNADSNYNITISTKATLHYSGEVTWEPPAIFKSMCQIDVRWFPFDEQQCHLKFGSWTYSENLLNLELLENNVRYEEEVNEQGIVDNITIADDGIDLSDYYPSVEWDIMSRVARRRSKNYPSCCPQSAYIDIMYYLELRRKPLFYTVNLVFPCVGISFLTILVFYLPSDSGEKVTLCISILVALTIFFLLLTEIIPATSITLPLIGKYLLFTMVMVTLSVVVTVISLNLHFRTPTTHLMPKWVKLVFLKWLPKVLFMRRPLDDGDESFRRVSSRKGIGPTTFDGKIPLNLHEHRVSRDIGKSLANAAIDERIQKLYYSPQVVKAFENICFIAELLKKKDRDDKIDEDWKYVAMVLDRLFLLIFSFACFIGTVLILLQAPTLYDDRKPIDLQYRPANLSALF
T1 sequence (D6MYF4 22-504): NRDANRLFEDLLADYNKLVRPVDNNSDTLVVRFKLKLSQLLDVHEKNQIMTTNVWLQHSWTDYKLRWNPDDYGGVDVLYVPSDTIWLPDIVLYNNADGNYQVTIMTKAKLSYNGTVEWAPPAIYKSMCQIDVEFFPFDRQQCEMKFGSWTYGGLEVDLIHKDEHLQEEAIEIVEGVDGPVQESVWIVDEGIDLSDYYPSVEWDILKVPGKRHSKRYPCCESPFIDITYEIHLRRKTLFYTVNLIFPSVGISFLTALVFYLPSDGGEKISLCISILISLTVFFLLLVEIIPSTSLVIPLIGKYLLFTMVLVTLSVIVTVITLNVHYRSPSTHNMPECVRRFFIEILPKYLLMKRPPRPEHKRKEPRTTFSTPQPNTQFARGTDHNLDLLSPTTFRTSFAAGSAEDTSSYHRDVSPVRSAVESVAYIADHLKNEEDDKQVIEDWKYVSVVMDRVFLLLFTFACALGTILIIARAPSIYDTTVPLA
T1 sequence (D6MYE9 21-498): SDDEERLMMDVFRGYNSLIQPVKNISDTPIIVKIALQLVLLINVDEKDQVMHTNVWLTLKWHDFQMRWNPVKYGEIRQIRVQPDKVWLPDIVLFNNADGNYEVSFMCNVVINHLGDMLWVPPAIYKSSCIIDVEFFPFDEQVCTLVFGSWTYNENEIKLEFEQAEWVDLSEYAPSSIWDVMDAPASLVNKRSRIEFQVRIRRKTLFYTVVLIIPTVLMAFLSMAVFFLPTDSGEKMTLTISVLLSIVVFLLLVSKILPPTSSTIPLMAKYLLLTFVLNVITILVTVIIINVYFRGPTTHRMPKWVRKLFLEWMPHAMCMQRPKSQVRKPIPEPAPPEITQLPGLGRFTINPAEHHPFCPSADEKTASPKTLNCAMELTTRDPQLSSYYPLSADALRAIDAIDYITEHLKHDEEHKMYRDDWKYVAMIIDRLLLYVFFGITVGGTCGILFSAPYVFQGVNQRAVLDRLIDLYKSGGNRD
Kind of test: Two-electrode voltage-clamp on Xenopus oocytes expressing Hco-L-AChR-2. Format: cell-based. The following applies: for Response to agonist: 100 μM agonist. An excerpt:
H. contortus and P. equorum acr-26 and acr-27 cDNAs were PCR-amplified using primers containing a restriction site in order to be sub-cloned into the expression vector pTB207 that is suitable for in vitro transcription. Primers are listed in S3 Table. The resulting plasmids were linearized with the NheI restriction enzyme (Fermantas) and used as templates for cRNA synthesis using the T7 mMessage mMachine kit (Ambion). Xenopus laevis ovaries were obtained from the University of Rennes, France (CRB Xenope) and defolliculated using 2 mg/ml collagenase type II (Gibco) in the incubation solution containing: 100 mM NaCl, 2 mM KCl, 1.8 mM CaCl2.2H2O, 1 mM MgCl2.6H2O, 5 mM HEPES, 2.5 mM C3H3NaO3, pH 7.5, supplemented with penicillin 100 U/mL and streptomycin 100 μg/mL). The oocytes were injected in the animal pole with a total volume of 36 nL of cRNA mix containing 50 ng/μL of each cRNA in RNase-free water using the Drummond nanoject II microinjector. Microinjected oocytes were kept at 20°C in incubation medium for 4 days to allow the receptors expression. Two-electrode voltage-clamp recordings were carried out using an Oocyte Clamp OC-725C amplifier (Warner instrument) in oocytes being voltage-clamped at -60mV. All agonist preparations were prepared with recording buffer (100 mM NaCl, 2.5 mM KCl, 1 mM CaCl2.2H2O, 5 mM HEPES, pH 7.3). Currents were recorded and analyzed using the pCLAMP 10.4 package (Molecular Devices).
Supplementary file ppat.1005267.s003.tif: S3 Fig Pharmacological profiles of Hco-L-AChR-1 and Hco-L-AChR-2. […] The bars indicate the time period of the agonist application. Functional expression of Hco-L-AChR-1 requires the co-expression of Hco-UNC-38; Hco-UNC-63; Hco-UNC-29.1 and Hco-ACR-8 AChR subunits with the ancillary proteins Hco-RIC-3.1; Hco-UNC-50 and Hco-UNC-74 whereas Hco-L-AChR-2 requires the co-expression of Hco-UNC-38; Hco-UNC-63 and Hco-UNC-29.1 AChR subunits with the ancillary proteins Hco-RIC-3.1; Hco-UNC-50 and Hco-UNC-74. (C) Scatter plot (mean ± SEM) of normalized currents elicited by 100 μM Mor on Hco-26/27, Hco-L-AChR-1 and Hco-L-AChR-2. […]

Structures are written as SMILES. Counter-ions that a name gives are not always drawn.

For the compound `c1ccc([C@H]2CN3CCSC3=N2)cc1` [Lev, (-)-tetramisole hydrochloride], the EC50 with native C. elegans L-AChR is 10 µM. In the case of `Cc1ccsc1/C=C/C1=NCCCN1C` [Mor, morantel], in test [1], it took 3.2 ± 1.2 µM to reach a half-maximal effect (EC50) and the “Response to agonist” value is reported as “less activated”. Turning to `CN1CCCN=C1/C=C/c1cccs1` [Pyr, pyrantel], in test [1], the “Response to agonist” value was “highly responsive”.
